In patent publication US10624917B2, “Compositions and methods useful for treating or preventing liver diseases or disorders, and promoting weight loss” (YALE UNIVERSITY, priority 2014, dated 2020):
“Also recorded” adds a separate entry of the source.

Tested on: IL-1β production in murine peritoneal macrophages (PECs)
Assay: IL-1β secretion (ELISA) by primed, ATP-pulsed peritoneal macrophages (PECs)
Assay type: cell-based, mouse
Protocol: FIGS. 1A-1J illustrate the finding that adenosine stimulates IL-1β production in NLRP3 inflammasome-dependent manner. Murine peritoneal macrophages (PECs) were obtained from wild type (WT) mice (FIGS. 1A-1D, 1F-1I), Il1r−/− (FIG. 1E) or Nlrp3−/−, ASC−/−, P2xr7−/−, or Caspase-1−/− mice (FIG. 1J) and were primed with LPS for 16 hours. FIG. 1A: This was followed by treatment for 1 hour with adenosine (Ad, 100 μM), adenosine deaminase inhibitor (EHNA, 10 μM), adenosine deaminase (ADA, 10 U ml^−1), ATP diphosphohydrolase (Apyrase, 10 U ml^−1), or erythro-9-(2-hydroxy-3-nonyl) adenine (EHNA, 10 μM) (FIGS. 1B, 1F-1J)). Pan adenosine agonist (NECA, 1 μM, 10 μM) (FIGS. 1C, 1E), or (FIGS. 1D, 1I) by NECA for 1 and 6 hours, and were then pulsed with ATP for 20 min. Enzyme-linked immunosobent assay (ELISA) of IL-1β, TNF-α, IL-10 and IFN-γ secretion were measured in cell supernatants after pulsing with ATP for 5 hours (FIGS. 1A, 1C-1E, 1J) or indicated time-course (FIGS. 1B, 1G-1I). LDH assay was performed after pulsing with ATP as indicated time-course (FIG. 1F). Data are expressed as the mean±SD from at least three independent experiments. *p<0.05 determined by Student's t-test.
C57BL/6 mice were purchased from the National Cancer Institute. ASC−/−, Caspase-1−/−, Nlrp3−/− and P2xr7−/− mice have been described (Rock et al., 2010, Annu Rev Immunol. 28:321-42). A2ora2a flox/flox mice and LysMcre mice were purchased from Jackson Laboratories. HIF-1a flox/flox mice were kindly provided by Dr. Ruslan M Medzhitov (Yale University). 7- to 12-week-old males with a variety of genetic manipulations were used in most experiments. The number of mice in each experimental group was chosen based on previous experience with these experimental models. Mouse peritoneal macrophages (PECs) were isolated by peritoneal lavage 3 days after intraperitoneal injection of 4% thioglycollate solution (B2551, Fluka,). Cells were plated at the density of 3×10^6 cells in 12-well dishes and non-adherent cells were removed after 3 h. Cells primed overnight with 100 ng/ml LPS or 10 ng/ml Pam3CSK4 were treated with various chemicals and followed stimulation. Cells were cultured in DMEM medium complemented with 10% FBS, penicillin/streptomycin and L-glutamine. Mouse bone marrow derived macrophages were isolated from bone marrow cells, and were differentiated for 7 days in complete RPMI-1640 medium supplemented with 2 mM L-glutamine, 100 U/ml penicillin, 100 μg/ml streptomycin, 50 μM 2-mercaptoethanol (all from Invitrogen), 10% heat-inactivated FBS and 20 ng/ml M-CSF (PeproTech). Kupffer cells (KC) were isolated by the density gradient separation of Optiprep (Sigma), and then plates were gently washed and media was replenished after seeding cells for 2 hours to raise KC purity.
Primed PECs were both pulsed for 20 min with 5 mM ATP or 10 μM nigericin, and left untreated until culture supernatants were collected. Secretion of IL-1β was determined by enzyme-linked immunoabsorbent assay (ELISA; R&D Systems).

[1] = LPS-primed PECs pulsed with ATP
[2] = PECs from A2A receptor deficient cells

Row | SMILES | IL-1β production [1] | IL-1β production [2] | IL-1β production in wild-type vs IL-1 receptor deficient macrophages (LPS + ATP) | IL-1β production by LPS and ATP (macrophages lacking caspase-1, NLRP3, ASC or P2x7 receptor)
1 | CCNC(=O)[C@H]1O[C@@H](n2cnc3c(N)nc(NCCc4ccc(CCC(=O)O)cc4)nc32)[C@H](O)[C@@H]1O [CGS21680] | increase IL-1β production to a comparable degree to NECA and EHNA | not increased | – | –
2 | CCNC(=O)[C@H]1O[C@@H](n2cnc3c(N)ncnc32)[C@H](O)[C@@H]1O [NECA, 5′-(N-ethylcarboxamido) adenosine] | stimulated an increase; also recorded: increased | not increased | to a similar degree | did not result in significant production of IL-1β
